# Laboratory results reported in publication PMC5736709, “Unravelling the specificity and mechanism of sialic acid recognition by the gut symbiont Ruminococcus gnavus” (Nature Communications, 2017).
# “Also recorded” adds a separate entry of the source.
# Legend:
# [1] = target: T1, RgCBM40 Y116A (Mediterraneibacter gnavus (Ruminococcus gnavus), UniProt A7B557, Y116A); test: ITC of sialoglycans binding to RgCBM40 mutant Y116A; set-up: species or system Ruminococcus gnavus ATCC 29149; settings: for Kd: ITC
# T1 sequence (A7B557 50-237 Y116A): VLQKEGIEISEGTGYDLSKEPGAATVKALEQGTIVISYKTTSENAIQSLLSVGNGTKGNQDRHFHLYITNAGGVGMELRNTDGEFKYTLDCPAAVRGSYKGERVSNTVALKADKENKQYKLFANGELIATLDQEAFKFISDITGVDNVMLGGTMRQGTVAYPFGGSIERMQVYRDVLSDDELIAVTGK
# Protocol: (§1) Site directed mutagenesis of RgGH33 to introduce the D282A mutation in the active site was carried out using the QuikChange kit, following the manufacturer’s instructions, Agilent (Santa Clara, CA, USA). Site-directed mutants of RgCBM40; I95A, Y116A, E126A, R128A, R204A and double mutant R128A/R204A, were obtained from NZyTech (Lisbon, Portugal). The primers are listed in Supplementary Table 4. The integrity of the RgGH33 and RgCBM40 mutants was checked by circular dichroism (CD).
# (§2) Isothermal titration calorimetry (ITC) experiments were performed using the PEAQ-ITC system (Malvern, Malvern, UK) with a cell volume of 200 µl. Prior to titration protein samples were exhaustively dialysed into PBS. The ligand was dissolved in the dialysis buffer. The cell protein concentration was 115 µM (except for mutant I95A where it was 173 µM and the wild-type interaction with 6′SL where it was 230 µM) and the syringe ligand concentration was 10 mM (25 mM for Neu5Ac). Controls with titrant (sugar) injected into buffer only were subtracted from the data. Analysis was performed using Malvern software, using a single-binding site model. The stoichiometry of binding sites was set to 1.0 as this was evident from the crystal structure. Quantitative and most qualitative experiments were carried out in triplicate.
# [2] = target: T2, RgCBM40 R128A (Mediterraneibacter gnavus (Ruminococcus gnavus), UniProt A7B557, R128A); test: ITC of sialoglycans binding to RgCBM40 mutant R128A; set-up: species or system Ruminococcus gnavus ATCC 29149; settings: for Kd: ITC
# T2 sequence (A7B557 50-237 R128A): T1 sequence (A7B557 50-237 Y116A)
# Protocol: as §1, §2
# [3] = target: T3, RgCBM40 R204A (Mediterraneibacter gnavus (Ruminococcus gnavus), UniProt A7B557, R204A); test: ITC of sialoglycans binding to RgCBM40 mutant R204A; set-up: species or system Ruminococcus gnavus ATCC 29149; settings: for Kd: ITC
# T3 sequence (A7B557 50-237 R204A): T1 sequence (A7B557 50-237 Y116A)
# Protocol: as §1, §2
# [4] = target: T4, RgCBM40 (Mediterraneibacter gnavus (Ruminococcus gnavus), UniProt A7B557); test: STD NMR of sialoglycans with RgCBM40 WT; set-up: species or system Ruminococcus gnavus ATCC 29149; settings: 1 mM sialoglycan, 50 μM RgCBM40 WT, 288 K; 'exception' = monosaccharides for which binding was not detected
# Protocol: ^1H and ^13C resonance assignment for all the sugars was performed on the bases of 1D ^1H, 2D DQF-COSY, TOCSY, HSQC and NOESY experiments run on the free ligands in unbuffered D2O, pH 7.0. For STD NMR experiments, all the samples consisted of 1 mM sialoglycans and 50 μM RgCBM40 (WT or I95A mutant) in D2O buffer solution of 10 mM Tris-d11 pH 7.8 and 100 mM NaCl (ligand: protein ratio 20:1). An STD pulse sequence that included 2.5 ms and 5 ms trim pulses and a 3 ms spoil gradient was used. Saturation was achieved applying a train of 50 ms Gaussian pulses (0.40 mW) on the f2 channel, at 0.60 p.p.m. (on-resonance experiments) and 40 p.p.m. (off-resonance experiments). The broad protein signals were removed using a 40 ms spinlock (T1ρ) filter. All the experiments were recorded at ^1H frequency of 800.23 MHz on a Bruker Avance III spectrometer equipped with a 5 mm probe TXI 800 MHz H-C/N-D-05 Z BTO, at 288 K. For all the sialoglycans in the presence of RgCBM40, an STD experiment with a saturation time of 2 s and a relaxation delay of 5 s was performed, as a first test for binding. For the confirmed binders, the STD NMR experiments were carried out at different saturation times (0.5, 1, 2, 3, 4 and 5 s) with 1 K scans and relaxation delay of 5 s, in order to obtain the binding epitope mapping. The resulting build-up curves for each proton were fitted mathematically to a mono-exponential equation (y = a×[1-exp(b×x)]), from which the initial slopes (a×b) were obtained. For each ligand, the binding epitope mapping was obtained by dividing the initial slopes by the one of the H7 proton of the corresponding sialic acid ring, to which an arbitrary value of 100% was assigned. This normalisation of the STD values allows the comparison across all the sialoglycans.
# [5] = target: SpCBM40_NanC; set-up: method as in PMID 26370075; settings: isolated S. pneumoniae SpCBM40_NanC ref 37; cited from earlier work
# [6] = target: T5, RgCBM40 R128A/R204A (Mediterraneibacter gnavus (Ruminococcus gnavus), UniProt A7B557, R128A/R204A); test: ITC of sialoglycans binding to RgCBM40 double mutant R128A/R204A; set-up: species or system Ruminococcus gnavus ATCC 29149; settings: for Kd: ITC
# T5 sequence (A7B557 50-237 R128A/R204A): T1 sequence (A7B557 50-237 Y116A)
# Protocol: as §1, §2
# [7] = target: T4, RgCBM40; test: ITC of sialoglycans binding to RgCBM40 wild type; set-up: species or system Ruminococcus gnavus ATCC 29149; settings: RgCBM40 WT; for Kd: ITC in PBS, 115-230 μM protein in cell, syringe 10 mM sugar (25 mM for Neu5Ac), * = estimate only, Kd too high to determine; for -T∆S / ∆G / ∆H: ITC, SD of three results
# Protocol: as §2
# [8] = target: T6, RgCBM40 Y210A (Mediterraneibacter gnavus (Ruminococcus gnavus), UniProt A7B557, Y210A); test: ITC of sialoglycans binding to RgCBM40 mutant Y210A; set-up: species or system Ruminococcus gnavus ATCC 29149; settings: for Kd: ITC
# T6 sequence (A7B557 50-237 Y210A): T1 sequence (A7B557 50-237 Y116A)
# Protocol: as §2
# [9] = target: T7, RgCBM40 I95A (Mediterraneibacter gnavus (Ruminococcus gnavus), UniProt A7B557, I95A); test: ITC of sialoglycans binding to RgCBM40 mutant I95A; set-up: species or system Ruminococcus gnavus ATCC 29149; settings: for Kd: 173 µM protein, syringe 10 mM sugar (25 mM for Neu5Ac), * = estimate only
# T7 sequence (A7B557 50-237 I95A): T1 sequence (A7B557 50-237 Y116A)
# Protocol: as §1, §2
Structure (SMILES),Binding by ITC (in words) [1],Kd [1],Binding by ITC (in words) [2],Kd [2],Binding by ITC (in words) [3],Kd [3],Binding to RgCBM40 detected by STD NMR [4],Kd [5],Binding by ITC (in words) [6],Kd [6],Kd [7],-T∆S [7],∆G [7],∆H [7],Binding by ITC (in words) [8],Kd [8],-T∆S [9],∆G [9],∆H [9],Kd [9]
"CC(=O)N[C@H]1[C@H]([C@H](O)[C@H](O)CO)O[C@@](O[C@H]2[C@@H](O)[C@@H](CO)O[C@@H](O[C@H]3[C@H](O)[C@@H](O)C(O)O[C@@H]3CO)[C@@H]2O)(C(=O)O)C[C@@H]1O (stereo partly drawn) [3′SL, α2-3 sialyllactose]",abolished,> 25 mM,abolished; also recorded: loss of binding,> 25 mM,abolished; also recorded: loss of binding,> 25 mM,detected,~1.5 mM,abolished; also recorded: loss of binding,> 25 mM,0.57 mM,1.47 ± 0.77 kcal/mol,-4.43 ± 0.05 kcal/mol,-5.90 ± 0.72 kcal/mol,abolished,> 25 mM,0.97 ± 0.47 kcal/mol,-3.74 ± 0.04 kcal/mol,-4.71 ± 0.43 kcal/mol,1.82 mM
"CC(=O)N[C@H]1[C@H]([C@H](O)[C@H](O)CO)O[C@@](OC[C@H]2O[C@@H](O[C@H]3[C@H](O)[C@@H](O)C(O)O[C@@H]3CO)[C@H](O)[C@@H](O)[C@H]2O)(C(=O)O)C[C@@H]1O (stereo partly drawn) [6′SL, α2,6-sialyllactose]",abolished,> 25 mM,abolished,> 25 mM,abolished,> 25 mM,detected,~1.6 mM,abolished,> 25 mM,1.7 mM,5.82 ± 0.48 kcal/mol,-3.78 ± 0.05 kcal/mol,-9.61 ± 0.44 kcal/mol,abolished,> 25 mM,-0.12 ± 0.3 kcal/mol,-3.91 ± 0.07 kcal/mol,-3.79 ± 0.24 kcal/mol,1.37 mM
